28 compounds from patent publication US9926304B2, “1-(arylmethyl)quinazoline-2,4(1H,3H)-diones as PARP inhibitors and the use thereof” (Impact Therapeutics, Inc., priority 2011, dated 2018) can be followed below.

Assay [1] has as its system SW620 human colorectal cancer cells. Description: MTT based cell viability assay: potentiation of the growth inhibiting activity of MMS.
The subject of assay [2] is Human breast cancer cell line T47D. Briefly: Cell based caspase-3 activity assay: potentiation of MMS induced apoptosis. Conditions: T47D cells, 11.1 μg/ml MMS, 24 hours, intracellular caspase-3 activity, read-out: EC50 (nM), potentiation of the apoptosis inducing activity of MMS. A digest of the protocol:
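T47D cells were exposed for 24 h to compound plus a minimally apoptotic MMS dose (medium containing 11.1 μg/ml MMS). Lysates were incubated 3 h at 37 °C with (Ac-DEVD)2-R110 caspase-3 substrate (20 μM in added buffer) and read at ex 496/em 520 nm. EC50 came from a sigmoidal fit of RFU versus log concentration.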

The mark [3] stands for this setting: Homo sapiens, SW-620, 120 h, read-out: IC50 (nM), potentiation of the growth inhibiting activity of MMS, SW620 cells, 1.7 μg/ml MMS, 5 days (120 hours), MTT.

Where a name gives a salt, the structure may show the parent alone. Read-outs that look alike come from different tables or passages of the source. Where only a bound is given, the exact number is not on record here.

In the case of `O=C(c1ccc(F)c(Cn2c(=O)[nH]c(=O)c3cc(Cl)ccc32)c1)N1CCN(C(=O)C2CCCCC2)CC1` [Example 125, 6-Chloro-1-(3-(4-(cyclohexylcarbonyl)piperazine-1-carbonyl)-6-fluorobenzyl)quinazoline-2,4(1H,3H)-dione], the IC50 in assay [1] (setting [3]) was 6.7 nM. For the same compound, in assay [2] (Homo sapiens, T47D, 24 h), the half-maximal effective concentration (EC50) (as a rule, the concentration giving half of the maximal effect) was 22 nM.

On to `O=C(c1ccc(Cn2c(=O)[nH]c(=O)c3ccccc32)o1)N1CCN(C(=O)C2CCCC2)CC1` [Example 67, 1-((2-(4-(Cyclopentylcarbonyl)piperazine-1-carbonyl)furan-5-yl)methyl)quinazoline-2,4(1H,3H)-dione], for which, in assay [1] (setting [3]), the IC50 worked out at 2050 nM. In addition, the half-maximal effective concentration (EC50) in assay [2] (Homo sapiens, T47D, 24 h) was 4820 nM.

On to `CC(=O)N1CCN(C(=O)c2cccc(Cn3c(=O)[nH]c(=O)c4ccccc43)c2)CC1` [Example 17, 1-(3-(4-Acetylpiperazine-1-carbonyl)benzyl)quinazoline-2,4(1H,3H)-dione], for which, in assay [1] (setting [3]), the IC50 is over 10000 nM. Also, the EC50 in assay [2] (Homo sapiens, T47D, 24 h) worked out at 5020 nM.

Turning to `O=C(c1ccc(F)cc1)N1CCN(C(=O)c2ccc(Cn3c(=O)[nH]c(=O)c4ccccc43)cc2)CC1` [Example 96, 1-(4-(4-(4-Fluorobenzoyl)piperazine-1-carbonyl)benzyl)quinazoline-2,4(1H,3H)-dione], the IC50 in assay [1] (setting [3]) was over 10000 nM. Further, in assay [2] (Homo sapiens, T47D, 24 h), the EC50 is over 10000 nM.

Take `O=C(c1cccc(Cn2c(=O)[nH]c(=O)c3cccc(F)c32)c1)N1CCN(C(=O)C2CCCCC2)CC1` [Example 138, 1-(3-(4-(Cyclohexylcarbonyl)piperazine-1-carbonyl)benzyl)-8-fluoroquinazoline-2,4(1H,3H)-dione]: the IC50 in assay [1] (setting [3]) was 351 nM. Moreover, in assay [2] (Homo sapiens, T47D, 24 h), the concentration for a half-maximal effect (EC50) was found to be 281 nM.

Regarding `O=C(c1ccc(F)c(Cn2c(=O)[nH]c(=O)c3cc(Cl)ccc32)c1)N1CCN(C(=O)c2cccs2)CC1` [Example 126, 6-Chloro-1-(6-fluoro-3-(4-(thiophene-2-carbonyl)piperazine-1-carbonyl)benzyl)quinazoline-2,4(1H,3H)-dione], the IC50 in assay [1] (setting [3]) is 18 nM. In assay [2] (Homo sapiens, T47D, 24 h), the EC50 amounted to 6.5 nM.

Consider `COc1ccc2c(=O)[nH]c(=O)n(Cc3cccc(C(=O)N4CCN(c5ncccn5)CC4)c3)c2c1` [Example 209, 7-Methoxy-1-(3-(4-(pyrimidin-2-yl)piperazine-1-carbonyl)benzyl)quinazoline-2,4(1H,3H)-dione], for which the IC50 in assay [1] (setting [3]) is 103 nM. In addition, in assay [2] (Homo sapiens, T47D, 24 h), the EC50 was 294 nM.

As to `Cc1cccc2c(=O)[nH]c(=O)n(Cc3cccc(C(=O)N4CCN(c5ncccn5)CC4)c3)c12` [Example 226, 8-Methyl-1-(3-(4-(pyrimidin-2-yl)piperazine-1-carbonyl)benzyl)quinazoline-2,4(1H,3H)-dione], the IC50 in assay [1] (setting [3]) came out at 84 nM. The EC50 in assay [2] (Homo sapiens, T47D, 24 h) came to 24 nM.

Consider `O=C(c1cccc(Cn2c(=O)[nH]c(=O)c3ccccc32)c1)N1CCN(c2ncccn2)CC1` [Example 194, 1-(3-(4-(Pyrimidin-2-yl)piperazine-1-carbonyl)benzyl)quinazoline-2,4(1H,3H)-dione hydrochloride], for which the IC50 in assay [1] (setting [3]) amounted to 18 nM. In assay [2] (Homo sapiens, T47D, 24 h), the EC50 worked out at 11 nM.

On to `O=C(c1cccc(Cn2c(=O)[nH]c(=O)c3ccccc32)c1)N1CCN(C2CCCC2)CC1` [Example 177, 1-(3-(4-Cyclopentylpiperazine-1-carbonyl)benzyl)quinazoline-2,4(1H,3H)-dione], for which the IC50 in assay [1] (setting [3]) was over 10000 nM. In assay [2] (Homo sapiens, T47D, 24 h), the EC50 was determined as 743 nM.

With `O=C(c1ccc(F)c(Cn2c(=O)[nH]c(=O)c3c(F)cccc32)c1)N1CCN(C(=O)C2CCCC2)CC1` [Example 158, 1-(3-(4-(Cyclopentylcarbonyl)piperazine-1-carbonyl)-6-fluorobenzyl)-5-fluoroquinazoline-2,4(1H,3H)-dione], the IC50 in assay [1] (setting [3]) turned out to be 7.8 nM. The EC50 in assay [2] (Homo sapiens, T47D, 24 h) was found to be 8.6 nM.

Turning to “1-(3-(4-(Cyclopentylcarbonyl)piperazine-1-carbonyl)-6-fluorobenzyl)-6-fluoroquinazoline-2,4(1H,3H)-dione [Example 153]”, the IC50 in assay [1] (read-out: IC50 (nM), potentiation of the growth inhibiting activity of MMS, SW620 cells, 1.7 μg/ml MMS, 5 days (120 hours), MTT) stood at 9.2 nM. Further, the concentration giving a half-maximal response (EC50) in assay [2] amounted to 2 nM.

In the case of `O=C(NCc1cccc(Cl)c1)c1cc(Cn2c(=O)[nH]c(=O)c3c(F)cccc32)ccc1F` [Example 201, 1-(3-(3-Chlorobenzylcarbamoyl)-4-fluorobenzyl)-5-fluoroquinazoline-2,4(1H,3H)-dione], the IC50 in assay [1] (setting [3]) was over 10000 nM. Moreover, the concentration giving a half-maximal response (EC50) in assay [2] (Homo sapiens, T47D, 24 h) is over 10000 nM.

On to `O=C(c1cccc(Cn2c(=O)[nH]c(=O)c3cccc(O)c32)c1)N1CCN(c2ncccn2)CC1` [Example 230, 8-Hydroxy-1-(3-(4-(pyrimidin-2-yl)piperazine-1-carbonyl)benzyl)quinazoline-2,4(1H,3H)-dione], for which the IC50 in assay [1] (setting [3]) was 2.6 nM. Moreover, in assay [2] (Homo sapiens, T47D, 24 h), the concentration for a half-maximal effect (EC50) is 3.2 nM.

As to `O=C(c1ccc(F)c(Cn2c(=O)[nH]c(=O)c3c(Cl)cccc32)c1)N1CCN(c2ncccn2)CC1` [Example 110, 5-Chloro-1-(6-fluoro-3-(4-(pyrimidin-2-yl)piperazine-1-carbonyl)benzyl)quinazoline-2,4(1H,3H)-dione], in assay [1] (setting [3]), the IC50 was determined as 72 nM. The EC50 in assay [2] (Homo sapiens, T47D, 24 h) was found to be 32 nM.

As to `O=C(c1cccc(-n2c(=O)[nH]c(=O)c3ccccc32)c1)N1CCN(c2ncccn2)CC1` [Example 221, 1-(3-(4-(Pyrimidin-2-yl)piperazine-1-carbonyl)phenyl)quinazoline-2,4(1H,3H)-dione], the IC50 in assay [1] (setting [3]) was over 10000 nM. For the same compound, the EC50 in assay [2] (Homo sapiens, T47D, 24 h) was over 10000 nM.

Regarding `O=C(c1cccc(Cn2c(=O)[nH]c(=O)c3c(F)cccc32)c1)N1CCN(C(=O)C2CCC2)CC1` [Example 165, 1-(3-(4-(Cyclobutylcarbonyl)piperazine-1-carbonyl)benzyl)-5-fluoroquinazoline-2,4(1H,3H)-dione], in assay [1] (setting [3]), the IC50 came to 49 nM. For the same compound, in assay [2] (Homo sapiens, T47D, 24 h), the EC50 came to 18 nM.

As for `COC(=O)c1cccc(Cn2c(=O)[nH]c(=O)c3ccccc32)c1` [Example 1, 1-(3-Methoxycarbonylbenzyl)quinazoline-2,4(1H,3H)-dione], the IC50 in assay [1] (setting [3]) was over 10000 nM. In addition, the 50% effective concentration (EC50) in assay [2] (Homo sapiens, T47D, 24 h) was over 10000 nM.

Consider `O=C(c1ccc(Cn2c(=O)[nH]c(=O)c3ccccc32)cc1)N1CCN(c2ncccn2)CC1` [Example 97, 1-(4-(4-(Pyrimidin-2-yl)piperazine-1-carbonyl)benzyl)quinazoline-2,4(1H,3H)-dione], for which the IC50 in assay [1] (setting [3]) is over 10000 nM. The EC50 in assay [2] (Homo sapiens, T47D, 24 h) was over 10000 nM.

For `O=C(c1cc(Cn2c(=O)[nH]c(=O)c3c(F)cccc32)ccc1F)N1CCN(c2ncccn2)CC1` [Example 193, 5-Fluoro-1-(4-fluoro-3-(4-(pyrimidin-2-yl)piperazine-1-carbonyl)benzyl)quinazoline-2,4(1H,3H)-dione hydrochloride], the IC50 in assay [1] (read-out: IC50 (nM), potentiation of the growth inhibiting activity of MMS, SW620 cells, 1.7 μg/ml MMS, 5 days (120 hours), MTT, hydrochloride) amounted to 4.5 nM. Also, in assay [2] (hydrochloride), the EC50 is 1.6 nM.

With `O=C(c1ccc(F)c(Cn2c(=O)[nH]c(=O)c3cc(Cl)ccc32)c1)N1CCN(C(=O)C2CCC2)CC1` [Example 167, 6-Chloro-1-(3-(4-(cyclobutylcarbonyl)piperazine-1-carbonyl)-6-fluorobenzyl)quinazoline-2,4(1H,3H)-dione], the IC50 in assay [1] (setting [3]) stood at 5.7 nM. For the same compound, the EC50 in assay [2] (Homo sapiens, T47D, 24 h) is 5 nM.

As to `O=C(c1ccc(F)c(Cn2c(=O)[nH]c(=O)c3ccccc32)c1)N1CCN(C(=O)c2ccco2)CC1` [Example 54, 1-(6-Fluoro-3-(4-(furan-2-carbonyl)piperazine-1-carbonyl)benzyl)quinazoline-2,4(1H,3H)-dione], the IC50 in assay [1] (setting [3]) turned out to be 217 nM. In addition, the half-maximal effective concentration (EC50) in assay [2] (Homo sapiens, T47D, 24 h) came out at 124 nM.

As for `O=C(c1cccc(Cn2c(=O)[nH]c(=O)c3cc([N+](=O)[O-])ccc32)c1)N1CCN(c2ncccn2)CC1` [Example 91, 6-Nitro-1-(3-(4-(pyrimidin-2-yl)piperazine-1-carbonyl)benzyl)quinazoline-2,4 (1H,3H)-dione], in assay [1] (setting [3]), the IC50 was over 10000 nM. In assay [2] (Homo sapiens, T47D, 24 h), the half-maximal effective concentration (EC50) worked out at 1990 nM.

Turning to `COc1ccc2c(c1)c(=O)[nH]c(=O)n2Cc1cccc(C(=O)N2CCN(c3ncccn3)CC2)c1` [Example 204, 6-Methoxy-1-(3-(4-(pyrimidin-2-yl)piperazine-1-carbonyl)benzyl)quinazoline-2,4(1H,3H)-dione], in assay [1] (setting [3]), the IC50 is over 10000 nM. The half-maximal effective concentration (EC50) in assay [2] (Homo sapiens, T47D, 24 h) is over 10000 nM.

`O=C(c1ccoc1)N1CCN(C(=O)c2cccc(Cn3c(=O)[nH]c(=O)c4ccccc43)c2)CC1` [Example 34, 1-(3-(4-(Furan-3-carbonyl)piperazine-1-carbonyl)benzyl)quinazoline-2,4(1H,3H)-dione]: the IC50 in assay [1] (setting [3]) is 294 nM. Moreover, the concentration for a half-maximal effect (EC50) in assay [2] (Homo sapiens, T47D, 24 h) is 104 nM.

As to `O=C(c1cc(F)cc(Cn2c(=O)[nH]c(=O)c3ccccc32)c1)N1CCN(C(=O)C2CCCC2)CC1` [Example 64, 1-(3-(4-(Cyclopentylcarbonyl)piperazine-1-carbonyl)-5-fluorobenzyl)quinazoline-2,4(1H,3H)-dione], the IC50 in assay [1] (setting [3]) came out at 177 nM. Moreover, in assay [2] (Homo sapiens, T47D, 24 h), the EC50 was determined as 51 nM.

As for `O=C(c1ccc(Cn2c(=O)[nH]c(=O)c3ccccc32)cc1)N1CCN(c2ccccn2)CC1` [Example 94, 1-(4-(4-(Pyridin-2-yl)piperazine-1-carbonyl)benzyl)quinazoline-2,4(1H,3H)-dione], the IC50 in assay [1] (setting [3]) is over 10000 nM. Further, the EC50 in assay [2] (Homo sapiens, T47D, 24 h) is over 10000 nM.

Turning to `O=C(c1ccc(Cl)cc1)N1CCN(C(=O)c2cccc(Cn3c(=O)[nH]c(=O)c4ccccc43)c2)CC1` [Example 10, 1-(3-(4-(4-Chlorobenzoyl)piperazine-1-carbonyl)benzyl)quinazoline-2,4(1H,3H)-dione], the IC50 in assay [1] (setting [3]) is 439 nM. The EC50 in assay [2] (Homo sapiens, T47D, 24 h) amounted to 400 nM.
